According to publication PMC6440634, “Phosphorylation of a serine/proline-rich motif in oxysterol binding protein-related protein 4L (ORP4L) regulates cholesterol and vimentin binding” (PLoS ONE, 2019):
Numbering of substitutions follows the chain as printed.

What was measured:
Test in all cases: specific radioligand binding in solution, Scatchard
ORP4L [1] = target: T1, ORP4L (Homo sapiens, UniProt Q969R2)
T1 construct: gene OSBP2; about 116 kDa on SDS-PAGE, dimer by cross-linking; residues S762SPSSPSS769 in ORD
T1 sequence (Q969R2 1-916): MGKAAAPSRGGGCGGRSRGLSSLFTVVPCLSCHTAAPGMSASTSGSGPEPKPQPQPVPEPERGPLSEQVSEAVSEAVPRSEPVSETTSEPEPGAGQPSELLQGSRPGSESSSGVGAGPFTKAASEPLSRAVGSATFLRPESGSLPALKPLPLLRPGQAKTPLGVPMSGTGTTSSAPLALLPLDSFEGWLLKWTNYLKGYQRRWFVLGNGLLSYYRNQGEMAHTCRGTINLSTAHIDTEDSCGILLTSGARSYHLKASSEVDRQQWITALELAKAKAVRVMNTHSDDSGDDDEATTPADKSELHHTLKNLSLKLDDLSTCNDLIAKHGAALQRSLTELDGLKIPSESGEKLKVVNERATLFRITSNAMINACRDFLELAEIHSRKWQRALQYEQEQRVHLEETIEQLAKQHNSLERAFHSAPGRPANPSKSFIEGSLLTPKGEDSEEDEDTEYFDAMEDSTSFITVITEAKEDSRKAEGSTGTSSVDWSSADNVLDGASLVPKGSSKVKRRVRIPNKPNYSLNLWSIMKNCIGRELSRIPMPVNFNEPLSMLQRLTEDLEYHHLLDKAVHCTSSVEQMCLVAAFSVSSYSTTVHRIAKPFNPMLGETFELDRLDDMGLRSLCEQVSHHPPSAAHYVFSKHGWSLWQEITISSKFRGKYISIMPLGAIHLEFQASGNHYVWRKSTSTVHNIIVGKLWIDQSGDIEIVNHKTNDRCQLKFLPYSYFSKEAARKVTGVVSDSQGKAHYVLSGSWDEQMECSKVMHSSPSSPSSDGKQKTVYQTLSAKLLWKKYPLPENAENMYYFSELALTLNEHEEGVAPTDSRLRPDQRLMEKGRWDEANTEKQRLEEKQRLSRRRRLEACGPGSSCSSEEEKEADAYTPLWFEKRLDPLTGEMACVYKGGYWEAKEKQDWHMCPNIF

ORP4L [2] = target: T2, ORP4L (Homo sapiens, UniProt Q969R2, S762A/S763A/S766A/S768A)
T2 construct: gene OSBP2; about 116 kDa on SDS-PAGE, dimer by cross-linking; residues S762SPSSPSS769 in ORD
T2 sequence (Q969R2 1-916 S762A/S763A/S766A/S768A): T1 sequence (Q969R2 1-916) with S762A, S763A, S766A, S768A

ORP4L [3] = target: T3, ORP4L (Homo sapiens, UniProt Q969R2, S762D/S763D/S766D/S768D)
T3 construct: gene OSBP2; about 116 kDa on SDS-PAGE, dimer by cross-linking; residues S762SPSSPSS769 in ORD
T3 sequence (Q969R2 1-916 S762D/S763D/S766D/S768D): T1 sequence (Q969R2 1-916) with S762D, S763D, S766D, S768D

Kd (ORP4L [1]) [nM] | Kd (ORP4L [2]) [nM] | Kd (ORP4L [3]) [nM] | SMILES
45 ± 12 | 62 ± 28 | 60 ± 18 | C[C@H](CCCC(C)(C)O)[C@H]1CC[C@H]2[C@@H]3CC=C4C[C@@H](O)CC[C@]4(C)[C@H]3CC[C@]12C [25OH]
160 ± 40 | 255 ± 90 | 144 ± 43 | CC(C)CCC[C@@H](C)[C@H]1CC[C@H]2[C@@H]3CC=C4C[C@@H](O)CC[C@]4(C)[C@H]3CC[C@]12C [cholesterol]
